For one data set, the system named is Liver. Description: Stability in mouse liver microsomes. Type of data set: ADME, microsome.
The target in the next data set is Cytochrome P450 2D6 (Homo sapiens, UniProt P10635). Description: Inhibition of CYP2D6 (unknown origin) up to 10 uM. Type of data set: ADME.
A further data set deals with Cytochrome P450 2C9 (Homo sapiens, UniProt P11712). Description: Inhibition of CYP2C9 (unknown origin) up to 10 uM. It is filed as ADME.
Data set [1] in a line: Plasma protein binding in mouse. It is filed as ADME, cell-free. The note with it: read-out: PPB (converted).
The target in data set [2] is Dipeptidyl peptidase 4 (Mus musculus, UniProt P28843). Description: Inhibition of ob/ob mouse plasma DPP4.
Chain of Dipeptidyl peptidase 4 (Mus musculus, UniProt P28843) (P28843 whole entry): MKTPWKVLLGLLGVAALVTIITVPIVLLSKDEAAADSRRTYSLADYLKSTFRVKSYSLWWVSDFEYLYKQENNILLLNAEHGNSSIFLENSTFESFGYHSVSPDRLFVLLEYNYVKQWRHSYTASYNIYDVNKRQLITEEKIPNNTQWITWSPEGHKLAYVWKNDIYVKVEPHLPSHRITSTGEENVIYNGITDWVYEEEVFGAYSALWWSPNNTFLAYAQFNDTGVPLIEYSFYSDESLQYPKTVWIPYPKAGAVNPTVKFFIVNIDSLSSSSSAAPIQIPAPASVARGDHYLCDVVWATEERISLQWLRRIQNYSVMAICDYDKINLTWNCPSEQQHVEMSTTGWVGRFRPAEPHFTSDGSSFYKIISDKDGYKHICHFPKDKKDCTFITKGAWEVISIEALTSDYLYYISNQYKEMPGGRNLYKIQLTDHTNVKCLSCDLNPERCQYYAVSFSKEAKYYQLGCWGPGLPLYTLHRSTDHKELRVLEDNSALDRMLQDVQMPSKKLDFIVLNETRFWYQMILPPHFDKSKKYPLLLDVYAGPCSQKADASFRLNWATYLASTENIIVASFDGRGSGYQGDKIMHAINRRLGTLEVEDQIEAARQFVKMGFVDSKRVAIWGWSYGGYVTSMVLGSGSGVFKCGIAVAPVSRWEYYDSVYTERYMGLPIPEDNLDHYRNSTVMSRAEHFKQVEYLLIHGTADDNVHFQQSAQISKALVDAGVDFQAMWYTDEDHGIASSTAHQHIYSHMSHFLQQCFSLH
Data set [3] can be described thus: Cmax in Wistar rat plasma at 30 mg/kg, po. Type of data set: ADME, organism-based. Also noted: dose 30 mg/kg, route oral.
In another data set the target is Dipeptidyl peptidase 9 (Homo sapiens, UniProt Q86TI2). Description: Inhibition of DPP9 (unknown origin).
Chain of Dipeptidyl peptidase 9 (Q86TI2 whole entry): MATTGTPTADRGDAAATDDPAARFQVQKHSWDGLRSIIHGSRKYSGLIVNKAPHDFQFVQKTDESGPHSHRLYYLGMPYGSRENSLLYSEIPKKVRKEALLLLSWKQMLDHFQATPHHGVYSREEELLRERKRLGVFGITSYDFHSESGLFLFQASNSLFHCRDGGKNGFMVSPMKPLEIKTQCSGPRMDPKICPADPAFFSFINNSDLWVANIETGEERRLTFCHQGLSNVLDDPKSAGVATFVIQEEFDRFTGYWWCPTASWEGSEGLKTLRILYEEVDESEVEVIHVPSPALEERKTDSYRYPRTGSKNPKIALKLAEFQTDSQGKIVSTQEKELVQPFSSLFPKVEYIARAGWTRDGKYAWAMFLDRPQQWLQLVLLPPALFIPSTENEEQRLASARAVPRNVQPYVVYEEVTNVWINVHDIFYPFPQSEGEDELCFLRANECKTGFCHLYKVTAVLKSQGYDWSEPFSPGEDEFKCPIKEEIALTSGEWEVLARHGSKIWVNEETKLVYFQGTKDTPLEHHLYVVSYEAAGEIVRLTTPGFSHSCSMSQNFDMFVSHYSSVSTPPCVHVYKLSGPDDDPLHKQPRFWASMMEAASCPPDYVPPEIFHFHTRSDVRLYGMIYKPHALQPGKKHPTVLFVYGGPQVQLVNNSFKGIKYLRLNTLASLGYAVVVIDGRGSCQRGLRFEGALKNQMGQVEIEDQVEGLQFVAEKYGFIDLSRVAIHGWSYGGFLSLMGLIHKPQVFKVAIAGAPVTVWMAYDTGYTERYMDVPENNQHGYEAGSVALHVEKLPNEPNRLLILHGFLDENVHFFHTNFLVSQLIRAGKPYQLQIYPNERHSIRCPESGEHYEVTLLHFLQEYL
Data set [4] can be described thus: AUC (0 to infinity) in Wistar rat plasma at 30 mg/kg, po. Type of data set: ADME, organism-based. Also noted: dose 30 mg/kg, time infinity, route oral.
Data set [5] addresses Dipeptidyl peptidase 4 (Rattus norvegicus, UniProt P14740). Description: Inhibition of Wistar rat plasma DPP4.
A further data set deals with T1, Cytochrome P450 1A2 (Homo sapiens, UniProt P05177).
T1 sequence (P05177 whole entry): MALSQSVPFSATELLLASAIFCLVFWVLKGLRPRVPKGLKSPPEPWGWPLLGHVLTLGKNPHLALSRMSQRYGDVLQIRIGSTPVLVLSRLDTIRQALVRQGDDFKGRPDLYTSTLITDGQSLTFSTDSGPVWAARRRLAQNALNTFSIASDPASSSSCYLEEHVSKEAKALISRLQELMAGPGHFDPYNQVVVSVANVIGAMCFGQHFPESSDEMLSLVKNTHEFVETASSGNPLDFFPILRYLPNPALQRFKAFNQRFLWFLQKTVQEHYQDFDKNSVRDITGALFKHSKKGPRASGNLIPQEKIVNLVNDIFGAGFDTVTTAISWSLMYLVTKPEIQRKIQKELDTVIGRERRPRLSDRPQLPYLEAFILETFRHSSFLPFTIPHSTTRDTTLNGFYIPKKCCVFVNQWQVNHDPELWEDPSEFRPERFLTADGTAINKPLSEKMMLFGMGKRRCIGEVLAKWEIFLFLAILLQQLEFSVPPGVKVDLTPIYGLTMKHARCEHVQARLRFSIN
Description: Inhibition of CYP1A2 (unknown origin) up to 10 uM. It is filed as ADME.

Data set [6] has as its target T2, Angiotensin-converting enzyme (Rattus norvegicus, UniProt P47820).
T2 sequence (P47820 whole entry): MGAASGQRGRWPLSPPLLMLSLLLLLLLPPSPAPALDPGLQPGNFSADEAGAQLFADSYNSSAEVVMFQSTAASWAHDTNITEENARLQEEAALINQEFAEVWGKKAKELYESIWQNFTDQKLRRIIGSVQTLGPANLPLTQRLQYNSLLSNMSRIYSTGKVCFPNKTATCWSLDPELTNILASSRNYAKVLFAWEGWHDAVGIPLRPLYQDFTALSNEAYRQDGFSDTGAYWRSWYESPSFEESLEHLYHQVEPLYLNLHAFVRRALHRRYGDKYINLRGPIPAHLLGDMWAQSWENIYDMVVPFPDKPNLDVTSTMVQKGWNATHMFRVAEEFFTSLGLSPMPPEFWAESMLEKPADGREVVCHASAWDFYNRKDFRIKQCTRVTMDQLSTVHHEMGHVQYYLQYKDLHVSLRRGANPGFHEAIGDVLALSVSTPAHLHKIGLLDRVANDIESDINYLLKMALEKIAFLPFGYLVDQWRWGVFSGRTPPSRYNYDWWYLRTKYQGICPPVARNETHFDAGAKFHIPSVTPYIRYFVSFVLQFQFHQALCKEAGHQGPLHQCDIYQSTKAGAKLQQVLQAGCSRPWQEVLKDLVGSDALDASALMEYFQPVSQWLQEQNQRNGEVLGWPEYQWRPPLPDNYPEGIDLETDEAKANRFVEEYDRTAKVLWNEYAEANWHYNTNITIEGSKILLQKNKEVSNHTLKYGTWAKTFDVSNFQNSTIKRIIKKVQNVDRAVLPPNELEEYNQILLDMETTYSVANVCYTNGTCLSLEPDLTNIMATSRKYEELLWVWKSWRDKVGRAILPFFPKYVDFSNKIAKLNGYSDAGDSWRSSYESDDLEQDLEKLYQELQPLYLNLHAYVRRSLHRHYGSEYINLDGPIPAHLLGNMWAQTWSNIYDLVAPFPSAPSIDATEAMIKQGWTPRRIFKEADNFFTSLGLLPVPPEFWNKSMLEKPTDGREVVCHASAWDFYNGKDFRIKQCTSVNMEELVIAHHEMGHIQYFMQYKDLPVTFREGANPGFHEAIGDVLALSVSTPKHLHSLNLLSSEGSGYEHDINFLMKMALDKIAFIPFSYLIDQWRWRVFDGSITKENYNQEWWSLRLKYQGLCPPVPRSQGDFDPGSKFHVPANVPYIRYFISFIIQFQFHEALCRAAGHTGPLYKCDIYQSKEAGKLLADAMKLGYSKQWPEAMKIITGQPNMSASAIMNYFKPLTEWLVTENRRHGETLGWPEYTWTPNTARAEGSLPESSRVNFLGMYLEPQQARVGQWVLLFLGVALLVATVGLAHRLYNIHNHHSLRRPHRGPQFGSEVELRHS
Description: Inhibition of Wistar rat plasma ACE.

Data set [7] in a line: Inhibition of APP (unknown origin). Also noted: species or system Homo sapiens.
For the next data set, the target named is Cytochrome P450 2C19 (Homo sapiens, UniProt P33261). Description: Inhibition of CYP2C19 (unknown origin) up to 10 uM. It is filed as ADME.
Chain of Cytochrome P450 2C19 (P33261 whole entry): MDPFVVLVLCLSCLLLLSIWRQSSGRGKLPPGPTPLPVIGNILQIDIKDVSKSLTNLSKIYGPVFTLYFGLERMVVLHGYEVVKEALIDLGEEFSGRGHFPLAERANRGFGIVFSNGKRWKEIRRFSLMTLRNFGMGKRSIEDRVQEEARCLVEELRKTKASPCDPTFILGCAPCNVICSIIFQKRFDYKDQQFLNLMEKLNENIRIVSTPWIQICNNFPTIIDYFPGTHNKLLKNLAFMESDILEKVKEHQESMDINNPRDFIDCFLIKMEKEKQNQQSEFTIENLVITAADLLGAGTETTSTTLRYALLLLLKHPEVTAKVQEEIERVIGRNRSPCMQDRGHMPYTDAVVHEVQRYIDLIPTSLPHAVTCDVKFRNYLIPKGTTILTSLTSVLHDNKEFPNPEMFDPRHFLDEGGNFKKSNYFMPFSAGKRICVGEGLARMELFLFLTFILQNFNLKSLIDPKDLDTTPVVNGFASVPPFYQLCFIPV
Data set [8] concerns the target Angiotensin-converting enzyme (Homo sapiens, UniProt P12821). Description: Inhibition of human plasma ACE.
Data set [9] can be described thus: Plasma protein binding in human. It is filed as ADME, cell-free. The note with it: read-out: PPB (converted).
For data set [10], the target named is Dipeptidyl peptidase 4 (Homo sapiens, UniProt P27487). Description: Inhibition of human plasma DPP4.
A further data set deals with Dipeptidyl peptidase 2 (Homo sapiens, UniProt Q9UHL4). Description: Inhibition of DPP2 (unknown origin).

This is an account of results in ChEMBL document CHEMBL4020733, “Approaches towards the development of chimeric DPP4/ACE inhibitors for treating metabolic syndrome” (Bioorg Med Chem Lett, 2017).

pIC50: −log10 of the molar value.

Chain of Angiotensin-converting enzyme (Homo sapiens, UniProt P12821) (P12821 whole entry): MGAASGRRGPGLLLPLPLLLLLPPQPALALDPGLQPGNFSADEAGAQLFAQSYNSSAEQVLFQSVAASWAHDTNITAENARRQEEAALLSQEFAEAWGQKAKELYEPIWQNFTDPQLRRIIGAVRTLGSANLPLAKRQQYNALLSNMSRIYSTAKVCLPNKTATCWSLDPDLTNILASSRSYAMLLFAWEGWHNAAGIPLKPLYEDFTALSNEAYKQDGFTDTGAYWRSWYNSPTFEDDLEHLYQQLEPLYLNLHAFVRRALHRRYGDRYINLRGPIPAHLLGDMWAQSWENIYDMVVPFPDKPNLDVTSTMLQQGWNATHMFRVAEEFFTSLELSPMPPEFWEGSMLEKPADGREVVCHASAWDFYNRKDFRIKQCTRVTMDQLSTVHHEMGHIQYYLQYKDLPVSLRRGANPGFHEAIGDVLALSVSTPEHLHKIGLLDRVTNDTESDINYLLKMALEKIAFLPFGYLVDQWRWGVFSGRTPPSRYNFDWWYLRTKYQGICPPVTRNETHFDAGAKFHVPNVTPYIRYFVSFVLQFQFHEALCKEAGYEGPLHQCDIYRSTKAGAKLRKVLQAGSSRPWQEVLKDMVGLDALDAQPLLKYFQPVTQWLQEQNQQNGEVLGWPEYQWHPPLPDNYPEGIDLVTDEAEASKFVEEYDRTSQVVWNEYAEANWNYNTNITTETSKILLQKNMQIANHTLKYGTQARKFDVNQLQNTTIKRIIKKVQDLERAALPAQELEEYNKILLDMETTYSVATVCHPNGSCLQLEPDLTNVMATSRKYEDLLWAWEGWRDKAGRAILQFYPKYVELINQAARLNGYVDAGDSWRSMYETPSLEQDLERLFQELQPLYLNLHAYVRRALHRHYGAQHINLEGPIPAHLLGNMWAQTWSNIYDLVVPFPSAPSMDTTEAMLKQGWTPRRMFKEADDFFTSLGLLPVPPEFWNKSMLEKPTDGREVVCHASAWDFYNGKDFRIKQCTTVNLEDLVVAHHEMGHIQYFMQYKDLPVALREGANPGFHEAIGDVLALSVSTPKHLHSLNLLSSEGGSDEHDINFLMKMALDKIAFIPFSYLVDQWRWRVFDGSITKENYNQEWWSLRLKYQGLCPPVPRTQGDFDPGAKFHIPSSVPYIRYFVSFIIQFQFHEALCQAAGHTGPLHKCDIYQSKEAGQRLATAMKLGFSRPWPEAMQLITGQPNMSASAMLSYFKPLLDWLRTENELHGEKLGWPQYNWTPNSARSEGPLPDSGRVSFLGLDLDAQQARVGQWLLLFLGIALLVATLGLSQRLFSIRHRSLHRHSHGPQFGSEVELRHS
Chain of Dipeptidyl peptidase 4 (Rattus norvegicus, UniProt P14740) (P14740 whole entry): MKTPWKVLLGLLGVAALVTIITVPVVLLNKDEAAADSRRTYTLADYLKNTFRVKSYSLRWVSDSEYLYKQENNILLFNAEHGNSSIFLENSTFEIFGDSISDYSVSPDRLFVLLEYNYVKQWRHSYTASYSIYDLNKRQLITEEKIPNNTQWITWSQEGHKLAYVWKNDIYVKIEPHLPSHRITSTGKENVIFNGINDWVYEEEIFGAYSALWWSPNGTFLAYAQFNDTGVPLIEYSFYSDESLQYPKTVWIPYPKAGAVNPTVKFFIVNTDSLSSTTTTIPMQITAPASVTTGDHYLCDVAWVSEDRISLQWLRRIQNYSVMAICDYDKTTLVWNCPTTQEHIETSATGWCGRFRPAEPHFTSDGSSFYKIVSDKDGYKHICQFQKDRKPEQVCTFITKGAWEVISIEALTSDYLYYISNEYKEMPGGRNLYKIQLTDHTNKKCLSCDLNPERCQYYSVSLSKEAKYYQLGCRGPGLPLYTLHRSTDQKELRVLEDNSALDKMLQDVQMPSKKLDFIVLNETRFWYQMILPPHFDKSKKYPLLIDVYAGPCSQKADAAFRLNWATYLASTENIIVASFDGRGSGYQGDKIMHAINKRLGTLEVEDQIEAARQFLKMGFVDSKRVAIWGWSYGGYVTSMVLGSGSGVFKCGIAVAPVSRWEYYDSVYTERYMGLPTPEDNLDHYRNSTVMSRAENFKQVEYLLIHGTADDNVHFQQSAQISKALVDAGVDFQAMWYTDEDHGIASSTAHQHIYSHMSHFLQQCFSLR
Chain of Cytochrome P450 2C9 (P11712 whole entry): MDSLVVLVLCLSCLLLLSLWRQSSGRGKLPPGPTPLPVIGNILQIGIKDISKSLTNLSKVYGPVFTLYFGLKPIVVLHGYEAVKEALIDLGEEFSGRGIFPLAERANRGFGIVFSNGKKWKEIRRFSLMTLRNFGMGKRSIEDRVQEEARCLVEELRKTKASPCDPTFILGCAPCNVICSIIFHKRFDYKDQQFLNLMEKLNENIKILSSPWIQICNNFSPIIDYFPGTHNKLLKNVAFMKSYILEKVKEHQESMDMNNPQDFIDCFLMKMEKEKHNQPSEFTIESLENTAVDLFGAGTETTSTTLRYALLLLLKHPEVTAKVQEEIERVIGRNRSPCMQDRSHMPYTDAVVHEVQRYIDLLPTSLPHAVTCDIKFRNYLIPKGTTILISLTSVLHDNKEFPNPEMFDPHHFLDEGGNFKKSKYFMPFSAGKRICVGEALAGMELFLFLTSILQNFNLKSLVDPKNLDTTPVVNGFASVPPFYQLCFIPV

By pIC50 is commonly meant the negative decadic logarithm of the IC50, by convention in mol/L. As usually defined, the Cmax is the maximum level reached in the sampled fluid or tissue. Broadly, the AUC(0-inf) is the area under the concentration-time curve extrapolated to infinity. `C[C@H](N[C@@H](CCc1ccccc1)C(=O)O)C(=O)N1C[C@@H](NC(=O)C[C@H](N)Cc2cc(F)c(F)cc2F)C[C@H]1C(=O)O`: in the data set on Liver, the Stability entry was “Stable”. The “inhibition (INH)” value on Cytochrome P450 2D6, on Cytochrome P450 2C9, against Cytochrome P450 1A2 and against Cytochrome P450 2C19 was “Not Active” each time. Further, the fraction unbound was 0.51 in [1] and 0.707 in data set [9]. Also, the pIC50 at Dipeptidyl peptidase 4 [2] is 6.66; at Dipeptidyl peptidase 9 it was 4.36; against Dipeptidyl peptidase 4 [5], 6.81; in data set [6], 6.48; in data set [7], less than 4.00; in [8] it was 6.80. In addition, the pIC50 on Dipeptidyl peptidase 4 [10] is 6.59; at Dipeptidyl peptidase 2, less than 4.00. In data set [3], this molecule gave a Cmax of 260 ng/mL. This molecule came in with an AUC(0-inf) in data set [4] of 1170 ng·h/mL.

On to `CCC[C@H](N[C@@H](CCc1ccccc1)C(=O)O)C(=O)N1C[C@@H](NC(=O)C[C@H](N)Cc2cc(F)c(F)cc2F)C[C@H]1C(=O)O`, for which, in the data set on Liver, the Stability entry was “Stable”. Moreover, the “inhibition (INH)” value against Cytochrome P450 2D6, against Cytochrome P450 2C9, against Cytochrome P450 1A2 and against Cytochrome P450 2C19 was “Not Active” in each case. Besides, the fraction unbound in data set [1] is 0.015; in [9], 0.597. Moreover, the pIC50 was 5.61 on Dipeptidyl peptidase 4 [2]; less than 4.00 against Dipeptidyl peptidase 9; 5.91 against Dipeptidyl peptidase 4 [5]; 6.05 in [6]; less than 4.00 in data set [7]; 7.29 in [8]. Moreover, the pIC50 against Dipeptidyl peptidase 4 [10] was 7.17; against Dipeptidyl peptidase 2 it was less than 4.00. For the same molecule, the Cmax in [3] was found to be 2500 ng/mL. This molecule also gave an AUC(0-inf) in data set [4] of 23500 ng·h/mL.

For `CC[C@H](N[C@@H](CCc1ccccc1)C(=O)O)C(=O)N1C[C@@H](NC(=O)C[C@H](N)Cc2cc(F)c(F)cc2F)C[C@H]1C(=O)O`, the Stability entry in the data set on Liver is “Stable”. For the same molecule, the “inhibition (INH)” value against Cytochrome P450 2D6, at Cytochrome P450 2C9, against Cytochrome P450 1A2 and against Cytochrome P450 2C19 was “Not Active” throughout. In addition, the fraction unbound in [1] was 0.129; in data set [9] it was 0.636. Further, the pIC50 at Dipeptidyl peptidase 4 [2] was 6.31; against Dipeptidyl peptidase 9, less than 4.00; on Dipeptidyl peptidase 4 [5] it was 6.50; in data set [6] it was 7.62; in data set [7], less than 4.00; in [8], 8.05 to 8.07. In addition, the pIC50 on Dipeptidyl peptidase 4 [10] was 7.24; against Dipeptidyl peptidase 2 it was less than 4.00. The Cmax in [3] amounted to 550 ng/mL. The molecule further gave an AUC(0-inf) in [4] of 2860 ng·h/mL.

As to `CCCC[C@H](N[C@@H](CCc1ccccc1)C(=O)O)C(=O)N1C[C@@H](NC(=O)C[C@H](N)Cc2cc(F)c(F)cc2F)C[C@H]1C(=O)O`, the Stability result in the data set on Liver was “Stable”. Further, the “inhibition (INH)” value on Cytochrome P450 2D6, on Cytochrome P450 2C9, against Cytochrome P450 1A2 and on Cytochrome P450 2C19 was “Not Active” throughout. Moreover, the fraction unbound in [1] was 0.014; in [9], 0.327. Moreover, the pIC50 was 5.14 at Dipeptidyl peptidase 4 [2]; less than 4.00 against Dipeptidyl peptidase 9; 5.38 at Dipeptidyl peptidase 4 [5]; 5.55 in [6]; less than 4.00 in [7]; 6.55 in [8]. The pIC50 is 6.99 at Dipeptidyl peptidase 4 [10] and less than 4.00 at Dipeptidyl peptidase 2. Also, the Cmax in data set [3] worked out at 1330 ng/mL. In addition, in data set [4], the AUC(0-inf) was 16800 ng·h/mL.
